In US20190055517A1, “Cell Line of M2c Macrophage and Its Applications” (National Pingtung University of Science and Technology, priority 2017, published 2019):

Experiments:
murine M2 macrophage [1] = test: mRNA expression level of each gene by real time PCR (qPCR) after induced differentiation; assay type: cell-based; conditions: for IL-6 mRNA expression level: conditions of chart 2, FIG. 6
Procedure: (§1) Embodiment 1 is prepared by the steps described above, isolate monocytes from murine bone marrow and use M-CSF to induce differentiation of M2 macrophage, and then use baicalin to induce M2C macrophage polarization. In comparison 1, incubate murine M2 macrophage in RPMI 1640 (10% FCS) containing LPS (lipopolysaccharide, 1 μg/ml, Sigma-Aldrich) for 2 hours. In comparison 2, incubate murine M2 macrophage in medium containing IL-4 ([…] Guidance System, Cambridge, UK) for 24 hours. The control group of M2 macrophage is incubated in RPMI 1640 (10% FCS) without any drugs. The conditions are shown below in chart 2.
After induced differentiation is complete, use flow cytometry to analyse the macrophage phenotype, in the meantime, also use real time PCR (qPCR) to observe mRNA expression level of each gene.
TNF-Alpha: M1 macrophage expression gene IRF5: M1 macrophage polarization promoting gene IRF4: M2 macrophage polarization promoting gene ARG1 (Arginase-1): M2a macrophage molecular marker IL-10: cytokine that promotes M2 macrophage polarization and inhibits inflammation IL-6: cytokine that promotes inflammation and also serves as M2b macrophage molecular marker. MERTK: a gene that serves as M2C macrophage molecular marker and promotes phagocytosis PTX3: a gene that serves as M2C macrophage molecular marker and promotes phagocytosis VEGF-A: vascular endothelial growth factor PD-L1: a gene that regulates T cell and promotes tissue autoimmune tolerance

Raw264.7 macrophages = test: VEGF-A protein in conditioned medium by ELISA; assay type: cell-based, murine; conditions: baicalin 50 μM, 48 hours, p<0.05, FIG. 13
Procedure: In this example, experiment was performed to further examine whether […] cells treated with baicalin will express VEGF-A protein. Add LPS (1 μg/ml), baicalin (50 μM) and IL-4 (10 ng/ml) respectively to medium culturing […]; Raw264.7 macrophages (ATCC, USA) and culture for 48 hours. Collect the conditioned medium and quantify VEGF-A protein by EUSA (Mouse VEGF EUSA Kit, Code: EK0541, BosterBio, CA, USA). Control group is cultured in the medium (90% DMEM+10% FBS) without any mentioned drugs. […] […] macrophage treated with baicalin can promote macrophage to secrete VEGF-A protein and the efficacy is greater than IL-4.

murine M2 macrophage [2] = test: Macrophage surface protein MERTK expression by flow cytometry; assay type: cell-based; conditions: versus control, LPS and IL-4 groups, p<0.05, FIG. 15
Procedure: as §1
In this example, experiment was performed to further test whether M2C treated by baicalin can express MERTK protein. Using flow cytometry to evaluate macrophage surface protein MERTK expression level in embodiment 1, comparison 1, 2, and the control group is cultured in RPMI 1640 (10% FCS) without any drugs. Result was shown in FIG. 14, after fluorescence staining, fluorescence MERTK marker binding was detected in approximately 80% of cells in every group. […] M2C cells treated with baicalin can promote macrophages to express MERTK protein, and the efficacy is greater than LPS and IL-4.

murine M2 macrophage [3] = test: Phagocytosis of FITC-Latex beads with PE-anti-MERTK staining (flow cytometry, fluorescence microscopy); assay type: cell-based
Procedure: In this example, experiment was performed to evaluate the effect of baicalin induced differentiated […] macrophages in promoting phagocytosis. Treatment conditions of drugs in each group is listed in chart 2, and control group is cultured in RPMI1640 (10% FCS) without any drugs. After treatment, collect 5×10^5 treated cells respectively and add 50 μl FITC-Latex beads (Phagocytosis assay kit (IgG FITC), Cayman Chemical, USA.) to perform phagocytosis experiment for 24 hours, and then use PE-anti-MERTK antibody to mark the cells and observe the fluorescence expression with flow cytometry.

[4] = test system: M2 cell line from murine bone marrow; test: Efferocytosis of CFSE-marked apoptotic cells by macrophages (flow cytometry PE-MERTK / CFSE); assay type: cell-based; conditions: apoptotic cells : M2 3:2, 2 hours, p<0.05, FIG. 21
Procedure: Efficacy evaluation of apoptotic cells efferocytosis in macrophages: method of the evaluation for effectiveness of apoptotic cells efferocytosis in M2 macrophage induced differentiated by different drugs were slightly modified based on previous studies (Li et al., Yancey et al., and Jehle et al; Liu st al and Lilis at al 2008). Detail steps are described below. Use 3 μM CFSE Cell Trace (Thermofisher, USA) to mark RAW264.7 macrophage cell line for 20 minutes under 37° C., then wash with PBS. Culture cells for 24 hours, then use the 1.5 mM H2O2 following the aforementioned steps to induce RAW264.7 macrophage cell to differentiate into apoptotic cells. […] Lastly, use flow cytometry (FACS BD ARIA II, BD Bioscience, USA) to examine fluorescence performance, if both PE-MERTK and CFSE appear positive, the cell will be identified as the M2C macrophages that efferocytosed the aforementioned apoptotic cells.
Results of fluorescence expression of stained apoptotic cells, macrophages and efferocytotic macrophages detected by flow cytometry are shown in FIG. 20. Apoptotic cells induced by H2O2 (1.5 mM) and express FITC fluorescence after FITC-CFSE staining are distributed in P4 region. Differentiated M2 macrophage expresses MERTK are detected by the expressed PE fluorescence after PE-MERTK staining, which is distributed in P5 region. […]

[5] = conditions of chart 2, P<0.05, FIG. 7 and FIG. 8
[6] = conditions of chart 2, p<0.05, FIG. 5

For O=C(O)[C@H]1O[C@@H](Oc2cc3oc(-c4ccccc4)cc(=O)c3c(O)c2O)[C@H](O)[C@@H](O)[C@@H]1O [Baicalin], the “IL-6 mRNA expression level” value (murine M2 macrophage [1]) was “significantly lower than comparison 1”, the “IL-6 mRNA expression level” value (murine M2 macrophage [1]; listed as embodiment 1) was “low” and the “IL-10 mRNA expression level” value (murine M2 macrophage [1]; conditions of chart 2, P<0.05, FIG. 6) was “significantly higher than comparison 1 and 2”. The “MERTK mRNA expression level” value (murine M2 macrophage [1]; [5]) was “significantly higher than control, comparison 1 and 2”, the “PD-L1 mRNA expression level” value (murine M2 macrophage [1]; [5]) was “significantly higher than control, comparison 1 and 2” and the “PTX3 mRNA expression level” value (murine M2 macrophage [1]; [5]) was “significantly higher than control, comparison 1 and 2”. The “VEGF-A mRNA expression level” value (murine M2 macrophage [1]; [5]) was “significantly higher than control, comparison 1 and 2”, the “IRF4 mRNA expression level” value (murine M2 macrophage [1]; [6]) was “significantly lower than comparison 2” and the “IRF5 mRNA expression level” value (murine M2 macrophage [1]; [6]) was “significantly lower than comparison 1”. For the same compound, the “TNF-Alpha mRNA expression level” value (murine M2 macrophage [1]; [6]) was “significantly lower than comparison 1”, the “ARG1 mRNA expression level” value (murine M2 macrophage [1]; conditions of chart 2, p<0.05, FIG. 6) was “significantly lower than comparison 2” and the “VEGF-A protein detected in conditioned medium” value (Raw264.7 macrophages) was “higher than control group and other groups treated with other drugs”. The “average MERTK expression level in one single cell (mean fluorescence intensity)” value (murine M2 macrophage [2]) was “two times higher”, the “percentage of cells that phagocytosed the beads” value (murine M2 macrophage [3]; FITC-Latex beads 24 hours, FIG. 16) was “approximately 30%” and the “percentage of cells that phagocytosed beads and also express MERTK protein” value (murine M2 macrophage [3]; FITC-Latex beads 24 hours, PE-anti-MERTK, FIG. 17) was 30%. The “MERTK fluorescence distribution of cells after phagocytosing FITC-Latex beads” value (murine M2 macrophage [3]; fluorescence microscope, PE-MERTK, FIG. 18) was “express MERTK on cell membrane”, the “mean fluorescence intensity of MERTK of single M2 macrophage” value ([4]; cells expressing CFSE) was “significantly higher than other drug treated groups and control group” and the “mean fluorescence intensity of CFSE of single M2 macrophage” value ([4]; cells expressing MERTK) was “significantly higher than other drug treated groups and control group”.
